Data taken from patent publication US12310975B2, “Modulators of BCL6 proteolysis and associated methods of use” (Arvinas Operations, Inc., priority 2019, dated 2025).
Where two headings read alike, the source gives them in different places.

Target: BCL6 (Homo sapiens (Human), UniProt P41182)
Experiment: Immunofluorescence high content imaging of BCL6 degradation in T47D cells
Format: cell-based
Conditions: for DC50: class symbols A-D, read-out: EC50 (nM)*
In short: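 T47D cells were treated 3 days at 37 °C with an 11-point 3-fold dilution series (top 0.1 or 1 μM), then fixed, permeabilized and immunostained for BCL6 with Alexa-488 secondary, CellMask and Hoechst. BCL6 signal was imaged at 10×, 4 fields/well, with top-hat smoothing.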

Structure (SMILES): CNC(=O)COc1cc2cc(Nc3nc(N4CCC[C@H](COc5cccc6c5C(=O)N(C5CCC(=O)NC5=O)C6=O)C4)ncc3Cl)ccc2n(CCC2CC2)c1=O (stereo partly drawn) [compound 334, 2-{[6-({5-chloro-2-[(3S)-3-({[2-(2,6-dioxopiperidin-3-yl)-1,3-dioxo-2,3-dihydro-1H-isoindol-4-yl]oxy}methyl)piperidin-1-yl]pyrimidin-4-yl}amino)-1-(2-cyclopropylethyl)-2-oxo-1,2-dihydroquinolin-3-yl]oxy}-N-methylacetamide]
- Dmax (T47D cells): ≥ 70%
- IC50 (T47D cells): < 10 nM

Structure (SMILES): CNC(=O)COc1cc2cc(Nc3nc(N4CCN(C)CC4)ncc3Cl)ccc2n(CCCCOc2ccc3c(c2)C(=O)N(C2CCC(=O)NC2=O)C3=O)c1=O (centres unmarked) [compound 238, 2-((6-((5-chloro-2-(4-methylpiperazin-1-yl)pyrimidin-4-yl)amino)-1-(4-((2-(2,6-dioxopiperidin-3-yl)-1,3-dioxoisoindolin-5-yl)oxy)butyl)-2-oxo-1,2-dihydroquinolin-3-yl)oxy)-N-methylacetamide]
- IC50: ≥ 100 nM
- Dmax (T47D): < 50%

Structure (SMILES): CN1C(=O)CCc2cc(Nc3cc(N4CCC(CN(C)[C@H]5C[C@H](Oc6ccc7c(c6)C(=O)N(C6CCC(=O)NC6=O)C7=O)C5)CC4)c([N+](=O)[O-])cc3Cl)ccc21 (some centres unmarked) [compound 85, 5-((1r,3r)-3-(((1-(4-chloro-5-((1-methyl-2-oxo-1,2,3,4-tetrahydroquinolin-6-yl)amino)-2-nitrophenyl)piperidin-4-yl)methyl)(methyl)amino)cyclobutoxy)-2-(2,6-dioxopiperidin-3-yl)isoindoline-1,3-dione]
- DC50: > 100 nM

Structure (SMILES): CN1C(=O)CCc2cc(Nc3cc(N4CCC(OCCOCCOCCOCCOCCOc5ccc6c(c5)CN(C5CCC(=O)NC5=O)C6=O)CC4)c([N+](=O)[O-])cc3Cl)ccc21 (centres unmarked) [compound 105, 3-(5-((14-((1-(4-chloro-5-((1-methyl-2-oxo-1,2,3,4-tetrahydroquinolin-6-yl)amino)-2-nitrophenyl)piperidin-4-yl)oxy)-3,6,9,12-tetraoxatetradecyl)oxy)-1-oxoisoindolin-2-yl)piperidine-2,6-dione]
- DC50: > 100 nM

Structure (SMILES): CN1CC[C@@H](Oc2cc3cc(Nc4nc(N5CCC(CN6CCN(c7ccc8c(c7)C(=O)N(C7CCC(=O)NC7=O)C8=O)CC6)CC5)ncc4Cl)ccc3n(C)c2=O)C1=O (stereo partly drawn) [compound 258, 5-(4-((1-(5-chloro-4-((1-methyl-3-(((R)-1-methyl-2-oxopyrrolidin-3-yl)oxy)-2-oxo-1,2-dihydroquinolin-6-yl)amino)pyrimidin-2-yl)piperidin-4-yl)methyl)piperazin-1-yl)-2-(2,6-dioxopiperidin-3-yl)isoindoline-1,3-dione]
- IC50: ≥ 100 nM

Structure (SMILES): CC(=O)COc1cc2cc(Nc3nc(N4CCC(N5CCC(Oc6ccc7c(c6)C(=O)N(C6CCC(=O)NC6=O)C7=O)C5)CC4)ncc3Cl)ccc2n(C)c1=O (centres unmarked) [compound 177, 5-((1-(1-(5-chloro-4-((1-methyl-2-oxo-3-(2-oxopropoxy)-1,2-dihydroquinolin-6-yl)amino)pyrimidin-2-yl)piperidin-4-yl)pyrrolidin-3-yl)oxy)-2-(2,6-dioxopiperidin-3-yl)isoindoline-1,3-dione]
- IC50: ≥ 100 nM
- Dmax (T47D): < 50%

Structure (SMILES): CNC(=O)COc1cc2cc(Nc3nc(N4CCC(c5ccccc5OCCCOCCOCCOCCOc5ccc6c(c5)CN(C5CCC(=O)NC5=O)C6=O)CC4)ncc3Cl)ccc2n(C)c1=O (centres unmarked) [compound 90, 2-((6-((5-chloro-2-(4-(2-(3-(2-(2-(2-((2-(2,6-dioxopiperidin-3-yl)-1-oxoisoindolin-5-yl)oxy)ethoxy)ethoxy)ethoxy)propoxy)phenyl)piperidin-1-yl)pyrimidin-4-yl)amino)-1-methyl-2-oxo-1,2-dihydroquinolin-3-yl)oxy)-N-methylacetamide]
- DC50: > 100 nM

Structure (SMILES): CNC(=O)COc1cc2cc(Nc3nc(N4C[C@@H](COc5ccc6c(c5)C(=O)N(C5CCC(=O)NC5=O)C6=O)O[C@@H](C)C4)ncc3Cl)ccc2n(C(C)C)c1=O (stereo partly drawn) [compound 383, 2-{[6-({5-chloro-2-[(25,6S)-2-({[2-(2,6-dioxopiperidin-3-yl)-1,3-dioxo-2,3-dihydro-1H-isoindol-5-yl]oxy}methyl)-6-methylmorpholin-4-yl]pyrimidin-4-yl}amino)-2-oxo-1-(propan-2-yl)-1,2-dihydroquinolin-3-yl]oxy}-N-methylacetamide]
- Dmax (T47D cells): 50 to 70%
- IC50 (T47D cells): 10 to 50 nM

Structure (SMILES): CNC(=O)COc1cc2cc(Nc3nc(N4CCN(C(C)(C)C5CCN(c6cccc(C(=O)NC7CCC(=O)NC7=O)c6F)CC5)CC4)ncc3Cl)ccc2n(C)c1=O (centres unmarked) [compound 291, 3-[4-(2-{4-[5-chloro-4-({1-methyl-3-[(methylcarbamoyl)methoxy]-2-oxo-1,2-dihydroquinolin-6-yl}amino)pyrimidin-2-yl]piperazin-1-yl}propan-2-yl)piperidin-1-yl]-N-(2,6-dioxopiperidin-3-yl)-2-fluorobenzamide]
- IC50: 10 to 50 nM
- Dmax (T47D): ≥ 70%

Structure (SMILES): CCC(C1CCN(c2ccc3c(c2)C(=O)N(C2CCC(=O)NC2=O)C3=O)CC1)N1CCN(c2ncc(Cl)c(Nc3ccc4c(c3)cc(OCC(=O)NC)c(=O)n4C)n2)CC1 (centres unmarked) [compound 337, 2-{[6-({5-chloro-2-[4-(1-{1-[2-(2,6-dioxopiperidin-3-yl)-1,3-dioxo-2,3-dihydro-1H-isoindol-5-yl]piperidin-4-yl}propyl)piperazin-1-yl]pyrimidin-4-yl}amino)-1-methyl-2-oxo-1,2-dihydroquinolin-3-yl]oxy}-N-methylacetamide]
- Dmax (T47D cells): < 50%

Structure (SMILES): CNC(=O)COc1cc2cc(Nc3nc(N4CCC(O[C@H]5C[C@H](N6CCC(c7cccc8c7C(=O)N(C7CCC(=O)NC7=O)C8=O)CC6)C5)CC4)ncc3Cl)ccc2n(C(C)C)c1=O (some centres unmarked) [compound 409, 2-({6-[(5-chloro-2-{4-[(1r,3r)-3-{4-[2-(2,6-dioxopiperidin-3-yl)-1,3-dioxo-2,3-dihydro-1H-isoindol-4-yl]piperidin-1-yl}cyclobutoxy]piperidin-1-yl}pyrimidin-4-yl)amino]-2-oxo-1-(propan-2-yl)-1,2-dihydroquinolin-3-yl}oxy)-N-methylacetamide]
- Dmax (T47D cells): 50 to 70%
- IC50 (T47D cells): < 10 nM

Structure (SMILES): CNC(=O)COc1cc2cc(Nc3nc(N4CCC(OCCOCCOCCOCc5ccc(Oc6ccc7c(c6)CN(C6CCC(=O)NC6=O)C7=O)cc5)CC4)ncc3Cl)ccc2n(C)c1=O (centres unmarked) [compound 135, 2-((6-((5-chloro-2-(4-(2-(2-(2-((4-((2-(2,6-dioxopiperidin-3-yl)-1-oxoisoindolin-5-yl)oxy)benzyl)oxy)ethoxy)ethoxy)ethoxy)piperidin-1-yl)pyrimidin-4-yl)amino)-1-methyl-2-oxo-1,2-dihydroquinolin-3-yl)oxy)-N-methylacetamide]
- DC50: > 100 nM

Structure (SMILES): CNC(=O)COc1cc2cc(Nc3nc(N4CCN(CC5CCN(c6cc(F)c(C(=O)NC7CCC(=O)NC7=O)c(OC)c6)CC5)CC4)ncc3Cl)ccc2n(C)c1=O (centres unmarked) [compound 354, 4-[4-({4-[5-chloro-4-({1-methyl-3-[(methylcarbamoyl)methoxy]-2-oxo-1,2-dihydroquinolin-6-yl}amino)pyrimidin-2-yl]piperazin-1-yl}methyl)piperidin-1-yl]-N-(2,6-dioxopiperidin-3-yl)-2-fluoro-6-methoxybenzamide]
- Dmax (T47D cells): 50 to 70%
- IC50 (T47D cells): < 10 nM
